Assay in all cases: NCI tumour cell line growth inhibition, 48 h
The test system of assay [1] is ACHN renal.
The test system of assay [2] is HCT-116 colon.
The subject of assay [3] is HL-60(TB) leukemia.
Assay [4] concerns K-562 leukemia.
Assay [5] concerns LOX IMVI melanoma.
The test system of assay [6] is OVCAR-3 ovarian.
The test system of assay [7] is SK-MEL-2 melanoma.
Assay [8] deals with SK-MEL-5 melanoma.
For assay [9], the system named is SK-OV-3 ovarian.
Assay [10] has as its system U251 CNS.

Where “and” joins values, the source holds several entries; their conditions need not be identical. Identical values can stand only once.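 How tested: cells in 96-well plates exposed to compound for 48 hours at five concentrations. Abbreviation: GI50, concentration required for 50% inhibition of growth. TGI is the concentration that stops growth completely.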

Take `O=S(=O)(/C=C/C=C/S(=O)(=O)c1ccccc1)c1ccccc1`: the TGI is 2.06 µM and 2.05 µM in assay [1]; 2.8 µM and 1.95 µM in assay [2]; 2.04 µM and 0.518 µM in assay [3]; 1.26 µM and 0.516 µM in [4]; 2.42 µM and 3.33 µM in assay [5]; 1.82 µM and 2.9 µM in assay [6]. Also, the TGI in assay [7] is 5.68 µM and 3.47 µM; in [8] it was 2.68 µM and 2.98 µM; in assay [9] it was 19.9 µM; in assay [10], 11 µM. Besides, the GI50 was 0.606 µM in assay [2]; 0.188 µM in assay [3]; 0.179 µM in [4]; 1.42 µM in assay [5]; 1.46 µM in assay [6]; 1.4 µM in assay [7]. Besides, the GI50 in [8] was 1.49 µM; in assay [10], 2.7 µM.

With `CCCCCCCC[N+](C)(C)Cc1ccc(C[N+](C)(C)CCCCCCCC)cc1`, the TGI in assay [1] was > 100 µM; in [2], > 100 µM; in assay [3], 97.6 µM; in assay [4] it was > 100 µM; in assay [5] it was > 100 µM; in [6], > 100 µM. The TGI in assay [7], in assay [8], in [9] and in [10] was > 100 µM throughout.

On to `CCOC(=O)C1Cc2c(ccc(OC)c2OC)C(=O)C1N` (stereo not drawn), for which the TGI in assay [1], in assay [2], in assay [3], in assay [4], in assay [5] and in [6] was > 100 µM in each case. For the same compound, the TGI in assay [7], in assay [8], in [9] and in assay [10] was > 100 µM each time.

Regarding `O=C1c2ccccc2C(=O)N1/N=C\c1ccc(Br)cc1`, the GI50 in assay [1], in [2], in assay [3], in assay [4], in assay [6] and in assay [7] was > 100 µM throughout. Further, the GI50 in assay [8] was > 100 µM. Also, the TGI in assay [1] was > 100 µM; in [2], > 100 µM; in [3], > 100 µM; in assay [4], > 100 µM; in assay [5], > 10 µM; in assay [6], > 100 µM. For the same compound, the TGI in assay [7], in [8], in assay [9] and in assay [10] was > 100 µM in each case.

For the compound `COc1ccc(-c2coc3ncnc(N)c23)cc1`, the GI50 in assay [1], in assay [2], in assay [3], in assay [4], in assay [5] and in assay [6] was > 25 µM each time. The GI50 in assay [7], in assay [8], in assay [9] and in assay [10] was > 25 µM each time. Moreover, the TGI in assay [1], in assay [2], in assay [3], in assay [4], in assay [5] and in assay [6] was > 25 µM each time. For the same compound, the TGI in assay [7], in [8], in [9] and in assay [10] was > 25 µM throughout.

As to `Nc1ncc(-c2cnn(C3CCNCC3)c2)cc1-c1nc2ccccc2o1`, the GI50 was 0.86 µM in assay [1]; 0.616 µM in [2]; 0.472 µM in [3]; 0.309 µM in assay [4]; 1.2 µM in assay [5]; 1.53 µM in assay [6]. In addition, the GI50 in assay [7] was 1.1 µM; in [8], 2.03 µM; in assay [9], 1.11 µM; in assay [10], 1.48 µM. For the same compound, the TGI in assay [1] worked out at 2.71 µM; in assay [2], 2.03 µM; in assay [3] it was 1.66 µM; in assay [4], 1.07 µM; in assay [5] it was 2.59 µM; in assay [6], 3.52 µM. Also, the TGI in assay [7] was 2.72 µM; in assay [8] it was 5.47 µM; in [9], 5.78 µM; in [10] it was 3.26 µM.

As for `COc1ccc(C(=O)/C=C/c2cc3ccccc3[nH]c2=O)cc1`, the GI50 in [1] is 22.9 µM; in assay [2], 14.7 µM; in [3], 21.9 µM; in assay [4] it was > 57.6 µM; in [5], 13.7 µM; in assay [6], 17.9 µM. Moreover, the GI50 in assay [7] is 23 µM; in assay [8] it was 25 µM; in assay [9], 22.7 µM; in assay [10], 17.5 µM. The TGI was > 55.1 µM in assay [1]; 24.8 µM in assay [2]; > 100 µM in [3]; > 100 µM in assay [4]; 25.4 µM in assay [5]; 36.4 µM in assay [6]. For the same compound, the TGI is > 73.8 µM in [7], > 56.6 µM in [8], > 91.6 µM in assay [9] and 43 µM in assay [10].

Turning to `COc1cc2c(c(OC)c1OC)-c1ccc(OC)c(=O)cc1[C@@H](NC(=O)CCl)CC2`, the GI50 in assay [1] was 0.0295 µM; in assay [2] it was < 0.01 µM; in assay [3], < 0.01 µM; in assay [4] it was < 0.01 µM; in [5], < 0.01 µM; in assay [6], < 0.01 µM. The GI50 in assay [7], in assay [8], in assay [9] and in assay [10] was < 0.01 µM throughout. Moreover, the TGI in assay [1] was > 54.1 µM; in [2], 0.0157 µM; in assay [3] it was < 0.0136 µM; in assay [4], > 100 µM; in assay [6], < 0.01 µM; in assay [7], 10.3 µM. Further, the results for the TGI in assay [8] and in assay [10] were < 0.0124 µM and 2.02 µM, respectively.

In the case of `CCN(Cc1ccc(F)cc1)c1ccc(CO)c(Cl)c1`, the GI50 is 10.2 µM in assay [1]; 0.0661 µM in [2]; 3.63 µM in assay [3]; 1.57 µM in assay [4]; 7.76 µM in assay [5]; 0.704 µM in assay [6]. In addition, the GI50 is 2.03 µM in [7], 1.86 µM in [8], 3.86 µM in [9] and 0.654 µM in assay [10]. Besides, the TGI was > 48.6 µM in assay [1]; 3.02 µM in [2]; 23.3 µM in assay [3]; > 100 µM in assay [4]; 20.7 µM in assay [5]; 6.18 µM in assay [6]. In addition, the TGI is 13.9 µM in assay [7], 15.2 µM in [8], 25.2 µM in assay [9] and 15.1 µM in assay [10].
